Values joined by “and” are separate entries in the source; they are usually repeats but may differ in a detail not shown here. Equal entries are not always repeated. Active and inactive are the calls of the source. The rule behind the calls is not given here.
Tested on: rodent lifetime carcinogenesis bioassay, tumor incidence TD50
Assay: chronic cancer bioassays in animals – CPDB, compiled studies (AID 1745844)

C[C@H]([C@H](O)CCC(C)(C)O)[C@H]1CC[C@@]2(O)C3=CC(=O)[C@@H]4C[C@@H](O)[C@@H](O)C[C@]4(C)[C@H]3CC[C@]12C
TD50 (mouse, strain Swiss albino, females, by gavage, site: any site (literature study), lesion: malignant tumor, dosed 95 weeks, study length 95 weeks): 0.0264 mg/kg/day | TD50 (mouse, strain Swiss albino, females, by gavage, site: mammary gland, lesion: adenocarcinoma, dosed 95 weeks, study length 95 weeks): 0.0264 mg/kg/day | TD50 (mouse, strain Swiss albino, males, by gavage, site: any site (literature study), lesion: malignant tumor, dosed 95 weeks, study length 95 weeks): 0.0558 mg/kg/day | TD50 (mouse, strain Swiss albino, males, by gavage, site: lung, lesion: adenocarcinoma, dosed 95 weeks, study length 95 weeks): 0.0558 mg/kg/day

CC1CN(N=O)C(=O)O1 (stereo not drawn)
TD50 (hamster, strain Syrian Golden, females, by gavage, site: forestomach, lesion: several types, types named in the paper, dosed 28 weeks, study length 60 weeks): 0.172 mg/kg/day

O=[N+]([O-])c1ccc2ncccc2c1
carcinogen call (rat, strain Fischer 344, females, in feed, site: liver, lesion: hyperplastic nodule, dosed 104 weeks, study length 104 weeks): negative (inactive) | TD50 (rat, strain Fischer 344, males, in feed, site: liver, lesion: hyperplastic nodule, dosed 104 weeks, study length 104 weeks): 267 mg/kg/day (inactive)

CC(O)c1ccccc1 (stereo not drawn)
carcinogen call (mouse, strain B6C3F1, females, by gavage, site: any site (literature study), lesion: several types, types named in the paper, dosed 103 weeks, study length 104 weeks): negative (inactive) | TD50 (mouse, strain B6C3F1, males, by gavage, site: any site (literature study), lesion: several types, types named in the paper, dosed 103 weeks, study length 104 weeks): 2230 mg/kg/day (inactive) | TD50 (rat, strain Fischer 344, females, by gavage, site: any site (literature study), lesion: several types, types named in the paper, dosed 103 weeks, study length 104 weeks): 826 mg/kg/day | TD50 (rat, strain Fischer 344, females, by gavage, site: liver, lesion: hepatocellular adenoma + hepatocellular carcinoma + neoplastic nodule, dosed 103 weeks, study length 104 weeks): 8630 mg/kg/day | TD50 (rat, strain Fischer 344, females, by gavage, site: pancreatic islets, lesion: islet-cell adenoma, dosed 103 weeks, study length 104 weeks): 2300 mg/kg/day (inactive) | TD50 (rat, strain Fischer 344, males, by gavage, site: adrenal medulla, lesion: pheochromocytoma + pheochromocytoma, malignant, dosed 103 weeks, study length 104 weeks): 135 mg/kg/day | TD50 (rat, strain Fischer 344, males, by gavage, site: any site (literature study), lesion: several types, types named in the paper, dosed 103 weeks, study length 104 weeks): 88.6 mg/kg/day | TD50 (rat, strain Fischer 344, males, by gavage, site: kidney, lesion: tubular-cell adenoma + tubular-cell adenocarcinoma, dosed 103 weeks, study length 104 weeks): 458 mg/kg/day and 944 mg/kg/day | TD50 (rat, strain Fischer 344, males, by gavage, site: kidney, lesion: tubular-cell adenoma, dosed 103 weeks, study length 104 weeks): 984 mg/kg/day and 564 mg/kg/day | TD50 (rat, strain Fischer 344, males, by gavage, site: liver, lesion: hepatocellular adenoma + hepatocellular carcinoma + neoplastic nodule, dosed 103 weeks, study length 104 weeks): 4800 mg/kg/day | TD50 (rat, strain Fischer 344, males, by gavage, site: lung, lesion: alveolar/bronchiolar adenoma + alveolar/bronchiolar carcinoma, dosed 103 weeks, study length 104 weeks): 1050 mg/kg/day | TD50 (rat, strain Fischer 344, males, by gavage, site: preputial gland, lesion: carcinoma, NOS, dosed 103 weeks, study length 104 weeks): 1270 mg/kg/day | TD50 (rat, strain Fischer 344, males, by gavage, site: testis, lesion: interstitial-cell tumor, dosed 103 weeks, study length 104 weeks): 51.5 mg/kg/day

O=C(Nc1cccc2c(=O)cc(-c3nn[nH]n3)oc12)c1ccc(OCCCCc2ccccc2)cc1
carcinogen call (rat, strain Jcl:SD, females, by gavage, site: liver, lesion: one or several types, types not named, dosed 52 weeks, study length 52 weeks): negative (inactive) | carcinogen call (rat, strain Jcl:SD, females, by gavage, site: liver, lesion: one or several types, types not named, dosed 52 weeks, study length 56 weeks): negative (inactive) | carcinogen call (rat, strain Jcl:SD, males, by gavage, site: liver, lesion: neoplastic nodule, dosed 52 weeks, study length 56 weeks): negative (inactive) | carcinogen call (rat, strain Jcl:SD, males, by gavage, site: liver, lesion: one or several types, types not named, dosed 52 weeks, study length 52 weeks): negative (inactive)

FC(F)OC(F)(F)C(F)Cl (stereo not drawn)
carcinogen call (mouse, strain Swiss/ICR, females, inhaled, site: liver, lesion: one or several types, types not named, dosed 52 weeks, study length 52 weeks): negative (inactive) | carcinogen call (mouse, strain Swiss/ICR, females, inhaled, site: liver, lesion: several types, types named in the paper, dosed 78 weeks, study length 82 weeks): negative (inactive) | TD50 (mouse, strain Swiss/ICR, females, inhaled, site: lung, lesion: adenoma, dosed 52 weeks, study length 52 weeks): 8930 mg/kg/day (inactive) | TD50 (mouse, strain Swiss/ICR, females, inhaled, site: lung, lesion: adenoma, dosed 78 weeks, study length 82 weeks): 18900 mg/kg/day (inactive) | TD50 (mouse, strain Swiss/ICR, males, inhaled, site: liver, lesion: several types, types named in the paper, dosed 52 weeks, study length 52 weeks): 8120 mg/kg/day (inactive) | TD50 (mouse, strain Swiss/ICR, males, inhaled, site: liver, lesion: several types, types named in the paper, dosed 78 weeks, study length 82 weeks): 11700 mg/kg/day (inactive) | carcinogen call (mouse, strain Swiss/ICR, males, inhaled, site: lung, lesion: adenoma, dosed 52 weeks, study length 52 weeks): negative (inactive) | TD50 (mouse, strain Swiss/ICR, males, inhaled, site: lung, lesion: adenoma, dosed 78 weeks, study length 82 weeks): 60900 mg/kg/day (inactive)

O.O=S(=O)(O)O.[Cd]
carcinogen call (mouse, strain Swiss, males, by gavage, site: liver, lesion: several types, types named in the paper, dosed 78 weeks, study length 78 weeks): negative (inactive) | TD50 (mouse, strain Swiss, males, by gavage, site: lung, lesion: several types, types named in the paper, dosed 78 weeks, study length 78 weeks): 1.78 mg/kg/day (inactive) | TD50 (rat, strain C.B. hooded, males, by gavage, site: liver, lesion: liver-cell adenoma, dosed 104 weeks, study length 114 weeks): 1.17 mg/kg/day (inactive)

NC(=O)N(CCF)N=O
TD50 (rat, strain Fischer 344, males, by gavage, site: forestomach, lesion: one or several types, types not named, dosed 40 weeks, study length 104 weeks): 0.125 mg/kg/day | TD50 (rat, strain Fischer 344, males, by gavage, site: lung, lesion: several types, types named in the paper, dosed 40 weeks, study length 104 weeks): 0.279 mg/kg/day

COc1ccc(O)cc1
TD50 (rat, strain F344/DuCrj, females, in feed, site: forestomach, lesion: squamous-cell carcinoma, dosed 104 weeks, study length 104 weeks): 3070 mg/kg/day | TD50 (rat, strain F344/DuCrj, females, in feed, site: forestomach, lesion: squamous-cell papilloma, dosed 104 weeks, study length 104 weeks): 2580 mg/kg/day | carcinogen call (rat, strain F344/DuCrj, males, in feed, site: forestomach, lesion: one or several types, types not named, dosed 51 weeks, study length 52 weeks): negative (inactive) | TD50 (rat, strain F344/DuCrj, males, in feed, site: forestomach, lesion: papilloma, dosed 51 weeks, study length 52 weeks): 1460 mg/kg/day | TD50 (rat, strain F344/DuCrj, males, in feed, site: forestomach, lesion: squamous-cell carcinoma, dosed 104 weeks, study length 104 weeks): 377 mg/kg/day | TD50 (rat, strain F344/DuCrj, males, in feed, site: forestomach, lesion: squamous-cell papilloma, dosed 104 weeks, study length 104 weeks): 832 mg/kg/day | TD50 (rat, strain F344/DuCrj, males, in feed, site: stomach, glandular, lesion: adenoma, dosed 104 weeks, study length 104 weeks): 16200 mg/kg/day | carcinogen call (rat, strain F344/DuCrj, males, in feed, site: stomach, glandular, lesion: one or several types, types not named, dosed 51 weeks, study length 52 weeks): negative (inactive)

O=NN1CCN(N=O)CC1
TD50 (mouse, strain C17, females, by gavage, site: forestomach, lesion: squamous-cell carcinoma, dosed 40 weeks, study length 104 weeks): 4.66 mg/kg/day | TD50 (mouse, strain C17, females, by gavage, site: uterus, lesion: reticulum-cell neoplasm, type A, dosed 40 weeks, study length 104 weeks): 4.13 mg/kg/day | TD50 (mouse, strain C17, males, by gavage, site: forestomach, lesion: squamous-cell carcinoma, dosed 40 weeks, study length 104 weeks): 2.01 mg/kg/day | carcinogen call (mouse, strain Swiss, females, in drinking water, site: any site (literature study), lesion: several types, types named in the paper, dosed 52 weeks, study length 100 weeks): positive | TD50 (mouse, strain Swiss, males, in drinking water, site: any site (literature study), lesion: several types, types named in the paper, dosed 52 weeks, study length 100 weeks): 8.24 mg/kg/day | TD50 (mouse, strain Swiss, males, in drinking water, site: liver, lesion: hepatocellular carcinoma, dosed 52 weeks, study length 100 weeks): 51.9 mg/kg/day | TD50 (mouse, strain Swiss, males, in drinking water, site: lung, lesion: adenoma, dosed 52 weeks, study length 100 weeks): 8.7 mg/kg/day

Cc1cc2ncccc2c2nc(N)n(C)c12
TD50 (mouse, strain C57BL/6NCrj, females, in feed, site: cecum, lesion: adenocarcinoma, dosed 85 weeks, study length 85 weeks): 50 mg/kg/day | TD50 (mouse, strain C57BL/6NCrj, females, in feed, site: colon, lesion: adenocarcinoma, dosed 85 weeks, study length 85 weeks): 92.8 mg/kg/day | TD50 (mouse, strain C57BL/6NCrj, females, in feed, site: large intestine, lesion: adenocarcinoma, dosed 85 weeks, study length 85 weeks): 32.3 mg/kg/day | TD50 (mouse, strain C57BL/6NCrj, females, in feed, site: liver, lesion: fibrosarcoma, dosed 85 weeks, study length 85 weeks): 20.7 mg/kg/day | TD50 (mouse, strain C57BL/6NCrj, females, in feed, site: liver, lesion: hepatocellular adenoma, dosed 85 weeks, study length 85 weeks): 80 mg/kg/day | TD50 (mouse, strain C57BL/6NCrj, females, in feed, site: liver, lesion: hepatocellular carcinoma, dosed 85 weeks, study length 85 weeks): 62.1 mg/kg/day | TD50 (mouse, strain CDF1, females, in feed, site: forestomach, lesion: several types, types named in the paper, dosed 91 weeks, study length 91 weeks): 10.7 mg/kg/day | TD50 (mouse, strain CDF1, females, in feed, site: forestomach, lesion: squamous-cell carcinoma, dosed 91 weeks, study length 91 weeks): 24.5 mg/kg/day | TD50 (mouse, strain CDF1, females, in feed, site: liver, lesion: hepatocellular carcinoma, dosed 91 weeks, study length 91 weeks): 65.6 mg/kg/day | TD50 (mouse, strain CDF1, females, in feed, site: liver, lesion: several types, types named in the paper, dosed 91 weeks, study length 91 weeks): 27.1 mg/kg/day | TD50 (mouse, strain CDF1, females, in feed, site: lung, lesion: several types, types named in the paper, dosed 91 weeks, study length 91 weeks): 25.1 mg/kg/day (inactive) | TD50 (mouse, strain CDF1, males, in feed, site: forestomach, lesion: several types, types named in the paper, dosed 91 weeks, study length 91 weeks): 14.5 mg/kg/day | TD50 (mouse, strain CDF1, males, in feed, site: forestomach, lesion: squamous-cell carcinoma, dosed 91 weeks, study length 91 weeks): 22.4 mg/kg/day | TD50 (mouse, strain CDF1, males, in feed, site: lung, lesion: several types, types named in the paper, dosed 91 weeks, study length 91 weeks): 148 mg/kg/day (inactive)

C=Cc1cccc[n+]1[O-]
TD50 (mouse, strain ICI, females, i.v., site: any site (literature study), lesion: benign tumor, dosed 75 weeks, study length 104 weeks): 1690 mg/kg/day (inactive) | carcinogen call (mouse, strain ICI, females, i.v., site: any site (literature study), lesion: malignant tumor, dosed 75 weeks, study length 104 weeks): negative (inactive) | carcinogen call (mouse, strain ICI, females, i.v., site: lung, lesion: adenoma, dosed 75 weeks, study length 104 weeks): negative (inactive) | carcinogen call (rat, strain Wistar, females, i.v., site: any site (literature study), lesion: benign tumor, dosed 75 weeks, study length 104 weeks): negative (inactive) | TD50 (rat, strain Wistar, females, i.v., site: any site (literature study), lesion: malignant tumor, dosed 75 weeks, study length 104 weeks): 175 mg/kg/day (inactive)

C[C@H](CCc1ccccc1)NC[C@H](O)c1ccc(O)c(C(N)=O)c1
carcinogen call (rat, strain Sprague-Dawley, females, in feed, site: heart, lesion: endocardial sarcoma, dosed 104 weeks, study length 104 weeks): negative (inactive) | carcinogen call (rat, strain Sprague-Dawley, males, in feed, site: heart, lesion: endocardial sarcoma, dosed 104 weeks, study length 104 weeks): negative (inactive)
